Columns and labels:
Format in all cases: physicochemical
[1] = Ultraviolet-visible light spectrum (maximum absorbance wavelength)
Protocol: Method for Obtaining an Ultraviolet-Visible Light Spectrum
Ultraviolet-visible (UV-Vis) Light spectra are obtained and recorded on an Agilent 8453 spectrophotometer using ChemStation software (Agilent Technologies, Inc., Santa Clara, Calif.).
(§1) The compounds were analyzed at 298° K according to the Method for Obtaining Ultraviolet-Visible Light Spectrum (30 μM acetonitrile) to obtain the maximum absorbance wavelength (λabs,max), Method for Obtaining Fluorescence Emission Spectrum (30 μM acetonitrile) to obtain the maximum emission wavelength (λem,max) and Method for Determining Quantum Yield (ΦF) (30 μM acetonitrile) at the concentration, in the solvent, and with the counter ion indicated in Table 1. The compounds included hydrogen at each R group that is not otherwise specified.
(§2) Compounds 6, 7, 9, 11-14 and 21 were analyzed according to: the Method for Obtaining Ultraviolet-Visible Light Spectrum to obtain the maximum absorbance wavelength (λabs,max), the Method for Obtaining Fluorescence Emission Spectrum to obtain the maximum emission wavelength (λem,max), and the Method for Determining Quantum Yield (ΦF) in the solvent and with the counter ion indicated in Table 3.

[2] = Fluorescence emission spectrum (maximum emission wavelength)
Protocol: Method for Obtaining a Fluorescence Emission Spectrum
Fluorescence emission spectra are obtained and recorded on a QM-4-CW Spectrofluorometer using FeliX32 software (Photon Technology International, Inc., Birmingham, N.J.).
as §1, §2

[3] = Fluorescence quantum yield, integrating sphere; conditions: for ΦF (quantum yield): 30 μM acetonitrile, 298 K, Table 1
Protocol: Method for Determining Quantum Yield
Quantum yield is determined using an integrating sphere attached to a QM-4-CW Spectrofluorometer using FeliX32 software (Photon Technology International).
as §1, §2

[4] = Fluorescence response to trifluoroacetic acid / DBU in acetonitrile; conditions: for emission wavelength λem,max: acetonitrile + 50 μL trifluoroacetic acid; for emission intensity at 400 nm: 30 μM in acetonitrile + 50 μL trifluoroacetic acid; for emission intensity at 600 nm / emission wavelength: 30 μM in neat acetonitrile
Protocol: A 30 μM solution of Compound 6 in acetonitrile was prepared by adding 99 μL of a stock solution of 3.04 mM Compound 6 in methanol to 10 mL of acetonitrile. An initial fluorescence emission spectrum of the solution was obtained and is illustrated by curve (i) in FIG. 1A.
A series of approximately 13.8 μL aliquots of trifluoroacetic acid (TFA) were then added to the 30 μM solution of Compound 6 until a total concentration of 60.0 mM of TFA was present in the solution. (The total amount of TFA present in the solution corresponded to 2000 equivalents of acid per equivalent of Compound 6.) The fluorescence emission spectrum of the resulting solution was obtained and is illustrated by curve (ii) in FIG. 1A.
A base, i.e., 1,8-diazabicyclo[5.4.0]undec-7-ene (DBU), was then added to the solution to neutralize the acid until a concentration of 90 mM DBU was obtained. The fluorescence emission spectrum of the resulting solution was obtained and is illustrated by curve (iii) in FIG. 1A. The fluorescence emission intensity at λem,max=565 nm increased as the amount of base present in the system increased and the fluorescence emission intensity at λem,max=405 nm decreased as the amount of base present in the system increased, which reflected Compound 6's ratiometric response to the changing base concentration in acetonitrile.
A 30 μM solution of Compound 7 in acetonitrile was prepared by adding 84 μL of a stock solution of 3.58 mM Compound 7 in methanol to 10 mL of acetonitrile. The emission spectrum of the solution was then obtained and is illustrated by curve (i) in FIG. 1B.
A series of approximately 13.8 μL aliquots of TFA were then added to the 30 μM solution of Compound 7 until a total concentration of 60.0 mM TFA was present in the solution (which corresponded to 2000 equivalents of acid per equivalent of Compound 7). The fluorescence emission spectrum of the solution was obtained and is illustrated by curve (ii) in FIG. 1B.
After the 60 mM TFA concentration was achieved, DBU was gradually added to the solution until a total concentration of 90 mM DBU was present in the solution. The fluorescence spectrum of the solution was obtained and is illustrated by curve (iii) in FIG. 1B.
An aliquot of 50 μL of trifluoroacetic acid was then added to the system, and the fluorescence emission spectrum was obtained and is illustrated by the curved line with a peak at 360 nm in FIG. 6A.
Compound 10 was placed in neat acetonitrile and its emission spectrum was monitored as trifluoroacetic acid was added to the acetonitrile in incremental amounts to achieve a solution that included an acid concentration ranging from 0 to 0.2 M. After each acid addition the sample was excited with radiation of a wavelength 340 nm, and its fluorescence emission spectrum was monitored. The results are illustrated in FIG. 7A.
The solution of Compound 10 in acetonitrile was titrated with trifluoroacetic acid (TFA). […] The first stage, which occurred with the addition of the initial aliquots of TFA, was a slight increase intensity at 580 nm, as illustrated in FIG. 7A. As more TFA was added to the system, a second transition occurred in which the emission at 580 nm began to decrease and as the emission at 400 nm began to increase, as illustrated in FIG. 7B. A plot of the emission intensity at 580 nm versus pH and at 400 nm versus pH is illustrated in FIG. 7C.
Compounds 10, 11, and 12 were then each individually added, at a concentration of 30 μM, to acetonitrile and the emission spectrum of each was monitored. The compounds emitted at 600 nm with an intensity of about 7.57×10^5 arbitrary units (a.u.) in neat acetonitrile. […] FIG. 8B illustrates the emission properties of Compound 12.

[5] = Fluorescence response to pH in buffered water; conditions: for fluorescence emission in water at pH 7.5: water pH 7.5
Protocol: Stock solutions of each compound (having a concentration of from 1-5 mM) were prepared by dissolving the corresponding salts of the compounds in methanol or 1V, N-dimethylformamide, and then diluting the same with acetonitrile or buffered water having a pH of from 2.5 to 7.5 derived from 0.2 M […] and 0.1 M citric acid, to achieve a sample solution having a compound concentration of 30.0 μM.
The emission spectrum for each sample was obtained. The results are illustrated by the plot in FIG. 2A.
The emission spectrum for each sample was obtained. […] The results are illustrated in the plot of FIG. 2B.
The fluorescence emission spectrum of Compound 8 in water having a pH of 2.5 was also obtained and is illustrated by the curved line with a peak at 360 nm in FIG. 5B.
Compounds 10, 11, and 12 were each individually added, at a concentration of 30 μM, to water having a pH=7.5 and the emission spectra of each were obtained. […] As the pH was decreased from 7.5 to 2.5 in 0.5 pH unit increments, fluorescence emission at 600 nm remained relatively nonexistent and the intensity of the fluorescence emission at 400 nm increased in correlation to the decrease in pH. FIG. 8A illustrates the emission properties of Compound 12.

[6] = 30 μM acetonitrile, 298 K, Table 1

CCCCn1c[n+]2ccccc2c1-c1ccc(N(CC)CC)cc1 [Compound 5, 2-butyl-1-(4-(diethylamino)phenyl)-2H-imidazo[1,5-a]pyridin-4-ium tetraphenylborate]
λabs, max Abs [1, 6]: 355 nm | λem, max Em [2, 6]: 550 nm | ΦF (quantum yield) [3]: 38%

CCN(CC)c1ccc(-n2cc(-c3cccc4cn(-c5ccc(C)cc5)c[n+]34)nn2)cc1.[Cl-] [Compound 14, 5-(1-(4-(diethylamino)phenyl)-1H-1,2,3-triazol-4-yl)-2-(p-tolyl)-2H-imidazo[1,5-a]pyridin-4-ium chloride]
λabs, max Abs ([1]; H2O pH = 2.2, 30 μM): 340 nm | λabs, max Abs ([1]; H2O pH = 7.5, 30 μM): 340 nm | λabs, max Abs ([1]; MeCN + excess TFA, 30 μM): 340 nm | λabs, max Abs ([1]; MeCN, 30 μM): 340 nm | λem, max Em ([2]; H2O pH = 2.2, 30 μM): 405 nm | λem, max Em ([2]; MeCN + excess TFA, 30 μM): 410 nm | […]F (quantum yield) ([3]; H2O pH = 2.2, 30 μM): 53% | […]F (quantum yield) ([3]; H2O pH = 7.5, 30 μM): 0% | […]F (quantum yield) ([3]; MeCN + excess TFA, 30 μM): 64% | […]F (quantum yield) ([3]; MeCN, 30 μM): 0%

CCCCn1c[n+]2ccccc2c1-c1ccc(OC)cc1.[Cl-] [Compound 4, 2-butyl-1-(4-methoxyphenyl)-2H-imidazo[1,5-a]pyridin-4-ium chloride]
λabs, max Abs [1, 6]: 320 nm | λem, max Em [2, 6]: 430 nm | ΦF (quantum yield) [3]: 64%

COc1ccc(-n2cc3cccc(-c4ccc(N(C)C)cc4)[n+]3c2)cc1 [Compound 21, 5-(4-(dimethylamino)phenyl)-2-(4-methoxyphenyl)-2H-imidazo[1,5-a]pyridin-4-ium tetraphenylborate]
λabs, max Abs ([1]; MeCN, 30 μM): 360 nm | λem, max Em ([2]; MeCN, 30 μM): 540 nm | […]F (quantum yield) ([3]; MeCN, 30 μM): 10%

CCCCn1cc2cccc(-c3ccc(N(C)C)cc3)[n+]2c1 [Compound 9, 2-butyl-5-(4-(dimethylamino)phenyl)-2H-imidazo[1,5-a]pyridin-4-ium tetraphenylborate]
λabs, max Abs ([1]; MeCN, 30 μM): 350 nm | λem, max Em ([2]; MeCN, 30 μM): 490 nm | […]F (quantum yield) ([3]; MeCN, 30 μM): 75%

CCCCn1c[n+]2ccccc2c1-c1ccc(C)cc1 [Compound 3, 2-butyl-1-(p-tolyl)-2H-imidazo[1,5-a]pyridin-4-ium tertraphenylborate]
λabs, max Abs [1, 6]: 320 nm | λem, max Em [2, 6]: 415 nm | ΦF (quantum yield) [3]: 46%

Cc1ccc(-n2cc3cccc(-c4cn(-c5ccc(N(C)C)cc5)nn4)[n+]3c2)cc1.[Cl-] [Compound 13, 5-(1-(4-(dimethylamino)phenyl)-1H-1,2,3-triazol-4-yl)-2-(p-tolyl)-2H-imidazo[1,5-a]pyridin-4-ium chloride]
λabs, max Abs ([1]; H2O pH = 2.5, 30 μM): 340 nm | λabs, max Abs ([1]; H2O pH = 7.5, 30 μM): 340 nm | λabs, max Abs ([1]; MeCN + 50 μL TFA, 30 μM): 340 nm | λabs, max Abs ([1]; MeCN, 30 μM): 340 nm | λem, max Em ([2]; H2O pH = 2.5, 30 μM): 405 nm | λem, max Em ([2]; MeCN + 50 μL TFA, 30 μM): 410 nm | […]F (quantum yield) ([3]; H2O pH = 2.5, 30 μM): 59% | […]F (quantum yield) ([3]; H2O pH = 7.5, 30 μM): 0% | […]F (quantum yield) ([3]; MeCN + 50 μL TFA, 30 μM): 67% | […]F (quantum yield) ([3]; MeCN, 30 μM): 0%

CC(C)c1cc(N(C)C)cc(C(C)C)c1-n1cc2cccc[n+]2c1 [Compound 8, 2-(4-(dimethylamino)-2,6-diisopropylphenyl)-2H-imidazo[1,5-a]pyridin-4-ium tetraphenylborate]
emission wavelength λem,max [4]: 360 nm | fluorescence emission in neat acetonitrile ([4]; acetonitrile without acid): fluorescence quenching | fluorescence emission in water at pH 7.5 [5]: fluorescence quenching | fluorescence λem ([5]; water, pH 2.5): 360 nm

CCN(CC)c1ccc(-n2cc(-c3cccc4cn(-c5ccc(N(C)C)cc5)c[n+]34)nn2)cc1.[Cl-] [Compound 10, 5-(1-(4-(diethylamino)phenyl)-1H-1,2,3-triazol-4-yl)-2-(4-(dimethylamino)phenyl)-2H-imidazo[1,5-a]pyridin-4-ium chloride]
emission intensity at 400 nm [4]: 1.34×10^6 a.u. | emission intensity at 600 nm [4]: about 7.57×10^5 arbitrary units (a.u.) | emission wavelength [4]: 600 nm | emission wavelength λem,max [4]: 400 nm | emission response to stepwise addition of TFA ([4]; acetonitrile, TFA 0 to 0.2 M, excited at 340 nm, emission at 580 nm and 400 nm): two stage transitions | fluorescence emission in water at pH 7.5 [5]: essentially no fluorescence emission

Cc1ccc(-n2cc(-c3cccc4cn(-c5ccc(N(C)C)cc5)c[n+]34)nn2)cc1.[Cl-] [Compound 11, 2-(4-(dimethylamino)phenyl)-5-(1-(p-tolyl)-1H-1,2,3-triazol-4-yl)-2H-imidazo[1,5-a]pyridin-4-ium chloride]
λabs, max Abs ([1]; H2O pH = 2.5, 30 μM): 340 nm | λabs, max Abs ([1]; H2O pH = 7.5, 30 μM): 340 nm | λabs, max Abs ([1]; MeCN + 50 μL TFA, 30 μM): 340 nm | λabs, max Abs ([1]; MeCN, 30 μM): 400 nm | λem, max Em ([2]; H2O pH = 2.5, 30 μM): 400 nm | λem, max Em ([2]; MeCN + 50 μL TFA, 30 μM): 405 nm | λem, max Em ([2]; MeCN, 30 μM): 605 nm | emission intensity at 400 nm [4]: 1.34×10^6 a.u. | emission intensity at 600 nm [4]: about 7.57×10^5 arbitrary units (a.u.) | emission wavelength [4]: 600 nm | emission wavelength λem,max [4]: 400 nm | […]F (quantum yield) ([3]; H2O pH = 2.5, 30 μM): 29% | […]F (quantum yield) ([3]; H2O pH = 7.5, 30 μM): 0% | […]F (quantum yield) ([3]; MeCN + 50 μL TFA, 30 μM): 55% | […]F (quantum yield) ([3]; MeCN, 30 μM): 35% | fluorescence emission in water at pH 7.5 [5]: essentially no fluorescence emission

Reference: patent US9908877B2, “Imidazo[1,5-a]pyridinium ion fluorophores, and methods of making and using the same” (Indiana University Research and Technology Corporation, priority 2013, dated 2018)
